Reference: paper PMC6125646, “Proceeding From in vivo Functions of Pheromone Receptors: Peripheral-Coding Perception of Pheromones From Three Closely Related Species, Helicoverpa armigera, H. assulta, and Heliothis virescens” (Frontiers in Physiology, 2018)

Key:
Test in all cases: single sensillum recording, transgenic fly at1 neurons
HarmOR16 [1] = molecular target: T1, HarmOR16 (Helicoverpa armigera, UniProt A0A7D5JJ30); conditions: agonist; mass loaded on filter paper in stimulus cartridge (10 μL in paraffin oil), 300 ms pulse; not a molar concentration
T1 construct: ORF in pVALIUM20, UAS-OR transgene expressed in Drosophila at1 neurons (Or67dGAL4 knock-in), host endogenous Orco; with Odorant receptor coreceptor (Drosophila melanogaster, endogenous in host neuron)
T1 sequence (A0A7D5JJ30 1-422): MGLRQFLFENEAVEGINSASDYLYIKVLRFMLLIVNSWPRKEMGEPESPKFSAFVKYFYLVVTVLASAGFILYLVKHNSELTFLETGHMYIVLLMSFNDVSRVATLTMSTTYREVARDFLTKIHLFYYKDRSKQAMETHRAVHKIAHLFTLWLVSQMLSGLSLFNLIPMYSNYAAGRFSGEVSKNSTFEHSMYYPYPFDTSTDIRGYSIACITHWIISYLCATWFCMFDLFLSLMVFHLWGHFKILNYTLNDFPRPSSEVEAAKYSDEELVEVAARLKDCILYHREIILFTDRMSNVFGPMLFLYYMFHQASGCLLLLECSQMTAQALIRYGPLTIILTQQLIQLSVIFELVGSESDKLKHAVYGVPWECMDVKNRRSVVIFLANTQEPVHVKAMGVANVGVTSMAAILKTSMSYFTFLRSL
T1 sequence (Q9VNB5 1-486 partner): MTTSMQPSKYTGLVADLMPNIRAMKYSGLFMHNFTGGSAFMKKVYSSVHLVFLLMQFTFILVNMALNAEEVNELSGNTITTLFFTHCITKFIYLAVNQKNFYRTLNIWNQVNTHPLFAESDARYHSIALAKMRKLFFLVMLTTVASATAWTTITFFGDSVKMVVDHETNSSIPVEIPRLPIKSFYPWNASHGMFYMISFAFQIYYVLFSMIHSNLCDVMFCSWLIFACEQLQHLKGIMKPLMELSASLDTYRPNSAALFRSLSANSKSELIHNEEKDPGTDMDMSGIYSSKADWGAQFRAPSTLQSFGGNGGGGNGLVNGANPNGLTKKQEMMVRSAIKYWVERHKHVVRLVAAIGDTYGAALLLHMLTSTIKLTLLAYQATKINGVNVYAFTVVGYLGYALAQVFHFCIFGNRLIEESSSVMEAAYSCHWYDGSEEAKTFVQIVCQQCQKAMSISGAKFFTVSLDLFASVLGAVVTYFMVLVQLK

HvirOR6 = tested on: T2, HvirOR6; parameters: species or system Heliothis virescens; conditions: agonist; mass loaded on filter paper in stimulus cartridge (10 μL in paraffin oil), 300 ms pulse; not a molar concentration
T2 construct: gene OR6; ORF in pVALIUM20, UAS-OR transgene expressed in Drosophila at1 neurons (Or67dGAL4 knock-in), host endogenous Orco; with Odorant receptor coreceptor (Drosophila melanogaster, endogenous in host neuron)

HassOR6 = molecular target: T3, HassOR6 (Helicoverpa assulta, UniProt R4JLZ7); conditions: agonist; mass loaded on filter paper in stimulus cartridge (10 μL in paraffin oil), 300 ms pulse; not a molar concentration
T3 construct: gene OR6; ORF in pVALIUM20, UAS-OR transgene expressed in Drosophila at1 neurons (Or67dGAL4 knock-in), host endogenous Orco; with Odorant receptor coreceptor (Drosophila melanogaster, endogenous in host neuron)
T3 sequence (R4JLZ7 1-425): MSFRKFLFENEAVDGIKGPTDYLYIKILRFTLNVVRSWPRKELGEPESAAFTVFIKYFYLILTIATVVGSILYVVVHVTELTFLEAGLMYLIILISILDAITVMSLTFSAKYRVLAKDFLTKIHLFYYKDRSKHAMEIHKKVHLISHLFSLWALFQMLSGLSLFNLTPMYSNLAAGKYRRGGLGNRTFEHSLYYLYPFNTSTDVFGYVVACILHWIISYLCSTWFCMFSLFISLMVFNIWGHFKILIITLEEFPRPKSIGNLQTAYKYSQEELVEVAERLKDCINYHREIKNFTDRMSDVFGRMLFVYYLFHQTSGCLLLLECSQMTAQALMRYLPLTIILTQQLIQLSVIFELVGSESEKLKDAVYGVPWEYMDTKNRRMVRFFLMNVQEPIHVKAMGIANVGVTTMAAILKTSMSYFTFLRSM
T3 sequence (Q9VNB5 1-486 partner): T1 sequence (Q9VNB5 1-486 partner)

HarmOR6 = molecular target: T4, HarmOR6 (Helicoverpa armigera, UniProt R4JSE3); conditions: agonist; mass loaded on filter paper in stimulus cartridge (10 μL in paraffin oil), 300 ms pulse; not a molar concentration
T4 construct: gene OR6; ORF in pVALIUM20, UAS-OR transgene expressed in Drosophila at1 neurons (Or67dGAL4 knock-in), host endogenous Orco; with Odorant receptor coreceptor (Drosophila melanogaster, endogenous in host neuron)
T4 sequence (R4JSE3 1-425): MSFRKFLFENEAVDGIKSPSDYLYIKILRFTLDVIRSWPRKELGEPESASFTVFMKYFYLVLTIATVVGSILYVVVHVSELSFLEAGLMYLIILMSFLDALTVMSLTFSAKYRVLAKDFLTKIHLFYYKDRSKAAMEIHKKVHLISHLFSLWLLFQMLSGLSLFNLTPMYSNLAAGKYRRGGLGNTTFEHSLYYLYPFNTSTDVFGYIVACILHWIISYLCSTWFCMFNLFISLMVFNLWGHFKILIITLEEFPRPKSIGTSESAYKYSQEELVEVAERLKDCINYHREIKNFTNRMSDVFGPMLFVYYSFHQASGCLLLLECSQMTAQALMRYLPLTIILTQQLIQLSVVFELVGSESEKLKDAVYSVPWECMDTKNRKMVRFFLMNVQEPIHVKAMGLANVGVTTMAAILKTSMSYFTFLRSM
T4 sequence (Q9VNB5 1-486 partner): T1 sequence (Q9VNB5 1-486 partner)

HassOR13 = molecular target: T5, HassOR13 (Helicoverpa assulta, UniProt A0A0B4ZYC6); conditions: agonist; mass loaded on filter paper in stimulus cartridge (10 μL in paraffin oil), 300 ms pulse; not a molar concentration
T5 construct: gene OR13; ORF in pVALIUM20, UAS-OR transgene expressed in Drosophila at1 neurons (Or67dGAL4 knock-in), host endogenous Orco; with Odorant receptor coreceptor (Drosophila melanogaster, endogenous in host neuron)
T5 sequence (A0A0B4ZYC6 1-425): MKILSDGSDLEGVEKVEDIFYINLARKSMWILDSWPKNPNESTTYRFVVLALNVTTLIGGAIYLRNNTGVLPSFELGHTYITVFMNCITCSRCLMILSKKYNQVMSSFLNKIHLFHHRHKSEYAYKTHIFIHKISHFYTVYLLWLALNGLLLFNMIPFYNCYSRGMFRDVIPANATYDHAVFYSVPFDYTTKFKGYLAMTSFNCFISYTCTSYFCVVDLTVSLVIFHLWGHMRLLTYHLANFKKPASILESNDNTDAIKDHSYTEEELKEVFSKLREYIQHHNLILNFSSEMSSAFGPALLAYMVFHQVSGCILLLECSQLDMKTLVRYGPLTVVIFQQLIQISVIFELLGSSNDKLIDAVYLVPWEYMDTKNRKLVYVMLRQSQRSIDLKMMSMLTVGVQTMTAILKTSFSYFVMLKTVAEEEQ
T5 sequence (Q9VNB5 1-486 partner): T1 sequence (Q9VNB5 1-486 partner)

HvirOR13 = tested on: T6, HvirOR13; parameters: species or system Heliothis virescens; conditions: agonist; mass loaded on filter paper in stimulus cartridge (10 μL in paraffin oil), 300 ms pulse; not a molar concentration
T6 construct: gene OR13; ORF in pVALIUM20, UAS-OR transgene expressed in Drosophila at1 neurons (Or67dGAL4 knock-in), host endogenous Orco; with Odorant receptor coreceptor (Drosophila melanogaster, endogenous in host neuron)

HarmOR13 = molecular target: T7, HarmOR13 (Helicoverpa armigera, UniProt A0A075TD52); conditions: agonist; mass loaded on filter paper in stimulus cartridge (10 μL in paraffin oil), 300 ms pulse; not a molar concentration
T7 construct: gene OR13; ORF in pVALIUM20, UAS-OR transgene expressed in Drosophila at1 neurons (Or67dGAL4 knock-in), host endogenous Orco; with Odorant receptor coreceptor (Drosophila melanogaster, endogenous in host neuron)
T7 sequence (A0A075TD52 1-425): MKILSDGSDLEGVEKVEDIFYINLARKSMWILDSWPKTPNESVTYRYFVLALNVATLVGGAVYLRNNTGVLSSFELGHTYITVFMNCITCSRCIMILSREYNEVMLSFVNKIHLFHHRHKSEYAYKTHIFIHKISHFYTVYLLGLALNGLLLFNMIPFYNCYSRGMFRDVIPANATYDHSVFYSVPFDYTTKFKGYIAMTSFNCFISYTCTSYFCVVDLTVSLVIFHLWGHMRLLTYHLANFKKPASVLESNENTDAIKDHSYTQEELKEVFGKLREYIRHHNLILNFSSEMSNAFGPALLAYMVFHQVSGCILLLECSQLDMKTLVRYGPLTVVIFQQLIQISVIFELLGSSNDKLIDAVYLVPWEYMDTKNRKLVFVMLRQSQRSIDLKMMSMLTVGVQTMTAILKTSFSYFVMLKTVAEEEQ
T7 sequence (Q9VNB5 1-486 partner): T1 sequence (Q9VNB5 1-486 partner)

HvirOR16 = tested on: T8, HvirOR16; parameters: species or system Heliothis virescens; conditions: agonist; mass loaded on filter paper in stimulus cartridge (10 μL in paraffin oil), 300 ms pulse; not a molar concentration
T8 construct: gene OR16; ORF in pVALIUM20, UAS-OR transgene expressed in Drosophila at1 neurons (Or67dGAL4 knock-in), host endogenous Orco; with Odorant receptor coreceptor (Drosophila melanogaster, endogenous in host neuron)

HarmOR16 [2] = molecular target: T1, HarmOR16; assay type: cell-based; conditions: agonist; odorant on filter paper in stimulus cartridge, 300 ms pulse

Row | SMILES | EC50 (HarmOR16 [1]) | EC50 (HvirOR6) | EC50 (HassOR6) | EC50 (HarmOR6) | EC50 (HvirOR16) | also measured
1 | CCCC/C=C\CCCCCCCC=O [Z9-14:Ald, (Z)-9-tetradecenal] | 0.00126 g | 2.75e-05 g | – | – | – | –
2 | CCCC/C=C\CCCCCCCCO [Z9-14:OH] | – | 0.000126 g | 9.66e-05 g | 3.85e-05 g | – | –
3 | CCCCCC/C=C\CCCCCCCCO [Z9-16:OH, (Z)-9-hexadecenol] | – | – | 5.99e-05 g | 5.84e-05 g | – | –
4 | CCCC/C=C\CCCCCCCCCC=O [Z11-16:Ald, (Z)-11-hexadecenal] | – | – | – | – | – | EC50 (HassOR13): 0.000242 g; EC50 (HvirOR13): 0.000216 g; EC50 (HarmOR13): 0.000213 g
5 | CCCC/C=C\CCCCCCCCCCOC(C)=O [Z11-16:OAc, (Z)-11-hexadecenyl acetate] | – | – | – | – | 8.88e-05 g | single sensillum recording, transgenic fly at1 neurons (HarmOR16 [2]): responded to the sex pheromone components Z9-14:Ald, Z11-16:OH, and Z11-16:OAc
6 | CCCC/C=C\CCCCCCCCCCO [Z11-16:OH, (Z)-11-hexadecenol] | 7.94e-05 g | – | – | – | 3.89e-05 g | –
